Assay results as given in patent US20260167926A1, “SPINAL CORD INJURY TREATMENT NEUROSPHERE” (KEIO UNIVERSITY, priority 2019, published 2026).

Tests used:
[1] = system: human iPS cell-derived neurospheres; experiment: Neurite length after differentiation of neurospheres into neurons; format: cell-based; conditions: neurospheres cultured one day with inhibitor, then differentiated; 7th and 14th day; 201B7 and 414C2; compared to the untreated group
Experimental: Specifically, in an in vitro experimental system, human iPS cell-derived neurospheres were treated with a γ-secretase inhibitor and a p38 MAPK inhibitor to induce differentiation into neurons. Subsequently, the length of the neurite was measured and evaluated.
DAPT was used as the γ-secretase inhibitor. In addition, SB203580 (CAS Number: 152121-47-6) was used as the p38 MAPK inhibitor. First, human iPS cell-derived neurospheres were cultured for one day in the presence of the γ-secretase inhibitor alone, in the presence of the p38 MAPK inhibitor alone, or in the presence of the γ-secretase inhibitor and the p38 MAPK inhibitor.
Subsequently, various cells were seeded on a poly-L-ornithine/fibronectin-coated 48-well chamber slide (manufactured by Costar Corporation) at a cell density of 1×10^5 cells/mL, and the cells were cultured in a growth factor-free medium at in a 95% air environment at 37° C. and 5% CO2 for 14 days and were differentiated into neurons. Subsequently, on the 7th day and the 14th day after the initiation of differentiation induction, the cells were fixed with 4% paraformaldehyde in 0.1 M PBS, and the length of the neurite was measured.
FIG. 13A is a graph showing the results for neurons derived from 201B7 cells (n=5). In addition, FIG. 13B is a graph showing the results for neurons derived from 414C2 cells (n=5).

p38 MAPK [2] = experiment: Immunostaining of p38 MAPK, phosphorylated p38 MAPK and βIII-tubulin in differentiated cells; format: cell-based, human; conditions: 14 days after initiation of differentiation induction
Experimental: Immunostaining of p38 MAPK, phosphorylated p38 MAPK, and βIII-tubulin was performed using cells obtained 14 days after the initiation of differentiation induction. In addition, Hoechst 33342 (CAS Number: 23491-52-3) was used to stain the cell nuclei.
FIG. 14A and FIG. 14B are representative microscopic images showing the results of immunostaining of the cells in the GSI (+) group. In FIG. 14A and FIG. 14B, “Pp38” indicates phosphorylated p38 MAPK, and “Merge” indicates the results of superimposing microscopic images. The scale bar is 20μm.

p38 MAPK [3] = experiment: Immunostaining of phosphorylated p38 MAPK in neurons derived from 201B7 neurospheres; format: cell-based, human; conditions: 201B7 neurospheres cultured one day at final concentration of 10 μM, differentiated 14 days
Experimental: Phosphorylation of p38 MAPK in human iPS cell-derived neurospheres treated with a γ-secretase inhibitor was examined.
Specifically, neurospheres derived from 201B7 cells, which are cells of a human iPS cell strain, were cultured for one day in the presence of a secretase inhibitor at a final concentration of 10 μM. Subsequently, the neurospheres were cultured in a growth factor-free medium in a 95% air environment at 37° C. and 5% CO2 for 14 days and were differentiated into nerurons. Subsequently, on the 14th day after the initiation of differentiation induction, the cells were fixed with 4% paraformaldehyde in 0.1 M PBS and observed. DAPT was used as the γ-secretase inhibitor. Immunostaining of phosphorylated p38 MAPK and βIII-tubulin was performed. In addition, Hoechst 33342 (CAS Number: 23491-52-3) was used to stain the cell nuclei.
FIG. 26 is representative microscopic images showing the results of immunostaining. In FIG. 26, “Pp38” represents phosphorylated p38 MAPK, and “Merge” indicates the results of superimposing microscopic images. The scale bar is 20 μm.

SMILES | neurite outgrowth (length of the neurite) [1] | localization of p38-positive region relative to βIII-tubulin-positive neurons (p38 MAPK [2]) | localization of phosphorylated p38-positive region (p38 MAPK [2]) | phosphorylation of p38 MAPK in neurons derived from the neurospheres (p38 MAPK [3])
C[S+]([O-])c1ccc(-c2nc(-c3ccncc3)c(-c3ccc(F)cc3)[nH]2)cc1 (centres unmarked) [p38 MAPK inhibitor, SB203580] | significantly decreased |  |  | 
C[C@H](NC(=O)Cc1cc(F)cc(F)c1)C(=O)N[C@H](C(=O)OC(C)(C)C)c1ccccc1 [γ-secretase inhibitor, DAPT] | significantly large | co-localized | in the nucleus | enhanced
